From patent publication US20160039880A1 (priority 2012, published 2016)
Values after ≈ are worked out from the molar mass of the structure shown. Where two headings read alike, the source gives them in different places.

Tests used:
[1] = biological target: Human recombinant cyclophilin A (Cyp A) (Homo sapiens, UniProt P62937); assay: Protease-free PPIase assay;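 note: cis to trans isomerization of SUC-AAPF-pNA by 2 nM enzyme, read as absorbance at 330 nm over 300 s at 10 °C, catalytic rate corrected for uncatalyzed background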
[2] = Water Solubility Assay (measured in pH 7.8 buffer); format: physicochemical; details: kinetic from dmso stock;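 note: precipitation onset detected as rise in absorbance at 650 nm across increasing concentrations, after shaking for 18 h, blank wells receiving DMSO only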
[3] = 35 mM HEPES buffer pH 7.8, 25 °C, aqueous buffer, pH 7.8 buffer, read-out: Water Solubility Assay

Human recombinant cyclophilin A (Cyp A), sequence (P62937 whole entry): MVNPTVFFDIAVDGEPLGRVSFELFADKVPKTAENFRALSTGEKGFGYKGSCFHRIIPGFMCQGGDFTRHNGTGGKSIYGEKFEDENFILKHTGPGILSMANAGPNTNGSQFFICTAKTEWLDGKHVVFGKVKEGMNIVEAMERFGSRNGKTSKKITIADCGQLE

Ki [1] | solubility at 18 h [2, 3] | solubility at 18 h ([2]; 25 °C, pH 7.8, aqueous buffer) | SMILES
4.9 nM | 75 to 100 µM (≈ 98.3 to 131 µg/mL) |  | CC[C@H]1NC(=O)[C@@H]([C@H](O)[C@H](C)CCN(C)Cc2ccccn2)N(C)C(=O)[C@@H](C(C)C)N(C)C(=O)[C@@H](CC(C)C)N(C)C(=O)[C@@H](CC(C)C)N(C)C(=O)[C@H](C)NC(=O)[C@@H](C)NC(=O)[C@@H](CC(C)C)N(C)C(=O)[C@@H](C(C)C)NC(=O)[C@H](CC(C)C)N(C)C(=O)[C@@H](C)N(C)C1=O [Compound DA, [(3R,4R,5S)-4-Hydroxy-3-methyl-5-(methylamino)-1-({pyridin-2-ylmethyl}-methylamino)-hexanoic acid]^1[(R)-methyl-Sar]^3 cyclosporin A]
13 nM | > 100 µM |  | CC[C@H]1NC(=O)[C@@H]([C@H](O)[C@H](C)CCN2CCC3(CC2)OCCO3)N(C)C(=O)[C@@H](C(C)C)N(C)C(=O)[C@@H](CC(C)C)N(C)C(=O)[C@@H](CC(C)C)N(C)C(=O)[C@H](C)NC(=O)[C@@H](C)NC(=O)C(CC(C)C)N(C)C(=O)[C@@H](C(C)C)NC(=O)[C@H](CC(C)C)N(C)C(=O)[C@@H](C)N(C)C1=O (stereo partly drawn) [Compound DY, [(3R,4R,5S)-1-(1,4-Dioxa-8-aza-spiro[4.5]dec-8-yl)-4-Hydroxy-3-methyl-5-(methylamino)-hexanoic acid]^1[(R)-methyl-Sar]^3 cyclosporin A]
22 nM |  |  | CC[C@H]1NC(=O)[C@@H]([C@H](O)[C@H](C)CCN2CCCCC2)N(C)C(=O)[C@@H](C(C)C)N(C)C(=O)[C@@H](CC(C)C)N(C)C(=O)[C@@H](CC(C)C)N(C)C(=O)[C@H](C)NC(=O)[C@@H](C)NC(=O)C(CC(C)C)N(C)C(=O)[C@@H](C(C)C)NC(=O)[C@H](CC(C)C)N(C)C(=O)[C@@H](C)N(C)C1=O (stereo partly drawn) [Compound EA, [(3R,4R,5S)-4-Hydroxy-3-methyl-5-(methylamino)-1-(piperidin-1-yl)-hexanoic acid]^1[(R)-methyl-Sar]^3 cyclosporin A]
6.5 nM |  | > 100 µM | CC[C@H]1NC(=O)[C@@H]([C@H](O)[C@H](C)CCN2CCOC[C@@H]2C)N(C)C(=O)[C@@H](C(C)C)N(C)C(=O)[C@@H](CC(C)C)N(C)C(=O)[C@@H](CC(C)C)N(C)C(=O)[C@H](C)NC(=O)[C@@H](C)NC(=O)C(CC(C)C)N(C)C(=O)[C@@H](C(C)C)NC(=O)[C@H](CC(C)C)N(C)C(=O)[C@@H](C)N(C)C1=O (stereo partly drawn) [Compound DW, [(3R,4R,5S)-4-Hydroxy-3-methyl-5-(methylamino)-1-((S)-3-methyl-morpholin-4-yl)-hexanoic acid]^1[(R)-methyl-Sar]^3 cyclosporin A]
4.7 nM |  | > 100 µM | CC[C@H]1NC(=O)[C@@H]([C@H](O)[C@H](C)CCCCCN(CC)CC)N(C)C(=O)[C@@H](C(C)C)N(C)C(=O)[C@@H](CC(C)C)N(C)C(=O)[C@@H](CC(C)C)N(C)C(=O)[C@H](C)NC(=O)[C@@H](C)NC(=O)[C@@H](CC(C)C)N(C)C(=O)[C@@H](C(C)C)NC(=O)[C@H](CC(C)C)N(C)C(=O)[C@@H](C)N(C)C1=O [Compound AH, [(6R,7R,8S)-7-Hydroxy-6-methyl-8-(methylamino)-1-N-diethylamino-nonanoic acid]^1[(R)-methyl-Sar]^3 cyclosporin A]
5.2 nM | 25 to 50 µM (≈ 33.1 to 66.2 µg/mL) |  | CC[C@H]1NC(=O)[C@@H]([C@H](O)[C@H](C)CCN2CCOc3ccccc32)N(C)C(=O)[C@@H](C(C)C)N(C)C(=O)[C@@H](CC(C)C)N(C)C(=O)[C@@H](CC(C)C)N(C)C(=O)[C@H](C)NC(=O)[C@@H](C)NC(=O)C(CC(C)C)N(C)C(=O)[C@@H](C(C)C)NC(=O)[C@H](CC(C)C)N(C)C(=O)[C@@H](C)N(C)C1=O (stereo partly drawn) [Compound DX, [(3R,4R,5S)-1-(2,3-Dihydro-benzo[1,4]oxazin-4-yl)-4-Hydroxy-3-methyl-5-(methylamino)-hexanoic acid]^1[(R)-methyl-Sar]^3 cyclosporin A]
1.9 nM |  | 25 to 50 µM (≈ 33 to 66.1 µg/mL) | CS[C@@H]1C(=O)N(C)[C@@H](CC(C)C)C(=O)N[C@H](C(C)C)C(=O)N(C)[C@H](CC(C)C)C(=O)N[C@H](C)C(=O)N[C@@H](C)C(=O)N(C)[C@H](CC(C)C)C(=O)N(C)[C@H](CC(C)C)C(=O)N(C)[C@H](C(C)C)C(=O)N(C)[C@H]([C@H](O)[C@H](C)CCN2CCOCC2)C(=O)N[C@H](C(C)C)C(=O)N1C [Compound AM, [(3R,4R,5S)-4-Hydroxy-3-methyl-5-(methylamino)-1-morpholino-hexanoic acid]^1[(S)-thio-methyl-Sar]^3 cyclosporin D]
5.8 nM |  | > 100 µM | CC[C@H]1NC(=O)[C@@H]([C@H](O)[C@H](C)CCN(C)CCS(N)(=O)=O)N(C)C(=O)[C@@H](C(C)C)N(C)C(=O)[C@@H](CC(C)C)N(C)C(=O)[C@@H](CC(C)C)N(C)C(=O)[C@H](C)NC(=O)[C@@H](C)NC(=O)[C@@H](CC(C)C)N(C)C(=O)[C@@H](C(C)C)NC(=O)[C@H](CC(C)C)N(C)C(=O)[C@@H](C)N(C)C1=O [Compound DE]
9.2 nM | > 100 µM |  | CC[C@H]1NC(=O)[C@@H]([C@H](O)[C@H](C)CCN2CCn3cnnc3C2)N(C)C(=O)[C@@H](C(C)C)N(C)C(=O)[C@@H](CC(C)C)N(C)C(=O)[C@@H](CC(C)C)N(C)C(=O)[C@H](C)NC(=O)[C@@H](C)NC(=O)C(CC(C)C)N(C)C(=O)[C@@H](C(C)C)NC(=O)[C@H](CC(C)C)N(C)C(=O)[C@@H](C)N(C)C1=O (stereo partly drawn) [Compound DU, [(3R,4R,5S)-1-(5,6-Dihydro-8H-[1,2,4]triazolo[4,3-a]pyrazin-7-yl)-4-Hydroxy-3-methyl-5-(methylamino)-hexanoic acid]^1[(R)-methyl-Sar]^3 cyclosporin A]
11 nM |  |  | CC[C@H]1NC(=O)[C@@H]([C@H](O)[C@H](C)CCN(C)Cc2ccc(Cl)cn2)N(C)C(=O)[C@@H](C(C)C)N(C)C(=O)[C@@H](CC(C)C)N(C)C(=O)[C@@H](CC(C)C)N(C)C(=O)[C@H](C)NC(=O)[C@@H](C)NC(=O)[C@@H](CC(C)C)N(C)C(=O)[C@@H](C(C)C)NC(=O)[C@H](CC(C)C)N(C)C(=O)[C@@H](C)N(C)C1=O [Compound DQ, [(3R,4R,5S)-4-Hydroxy-3-methyl-5-(methylamino)-1-({5-chloro-pyridin-2-ylmethyl}-methylamino)-hexanoic acid]^1[(R)-methyl-Sar]^3 cyclosporin A]
8.4 nM |  |  | CC[C@H]1NC(=O)[C@@H]([C@H](O)[C@H](C)CCN(C)Cc2ncccc2C(F)(F)F)N(C)C(=O)[C@@H](C(C)C)N(C)C(=O)[C@@H](CC(C)C)N(C)C(=O)[C@@H](CC(C)C)N(C)C(=O)[C@H](C)NC(=O)[C@@H](C)NC(=O)[C@@H](CC(C)C)N(C)C(=O)[C@@H](C(C)C)NC(=O)[C@H](CC(C)C)N(C)C(=O)[C@@H](C)N(C)C1=O [Compound DR, [(3R,4R,5S)-4-Hydroxy-3-methyl-5-(methylamino)-1-({3-trifluoromethyl-pyridin-2-ylmethyl}-methylamino)-hexanoic acid]^1[(R)-methyl-Sar]^3 cyclosporin A]
16.2 nM |  |  | CC[C@H]1NC(=O)[C@@H]([C@H](O)[C@H](C)CCN(C)Cc2ccc(F)cn2)N(C)C(=O)[C@@H](C(C)C)N(C)C(=O)[C@@H](CC(C)C)N(C)C(=O)[C@@H](CC(C)C)N(C)C(=O)[C@H](C)NC(=O)[C@@H](C)NC(=O)[C@@H](CC(C)C)N(C)C(=O)[C@@H](C(C)C)NC(=O)[C@H](CC(C)C)N(C)C(=O)[C@@H](C)N(C)C1=O [Compound DP, [(3R,4R,5S)-4-Hydroxy-3-methyl-5-(methylamino)-1-({5-fluoro-pyridin-2-ylmethyl}-methylamino)-hexanoic acid]^1[(R)-methyl-Sar]^3 cyclosporin A]
40 nM |  |  | CC[C@H]1NC(=O)[C@@H]([C@H](O)[C@H](C)CCN2CCCC2)N(C)C(=O)[C@@H](C(C)C)N(C)C(=O)[C@@H](CC(C)C)N(C)C(=O)[C@@H](CC(C)C)N(C)C(=O)[C@H](C)NC(=O)[C@@H](C)NC(=O)C(CC(C)C)N(C)C(=O)[C@@H](C(C)C)NC(=O)[C@H](CC(C)C)N(C)C(=O)[C@@H](C)N(C)C1=O (stereo partly drawn) [Compound EF, [(3R,4R,5S)-4-Hydroxy-3-methyl-5-(methylamino)-1-(pyrrolidin-1-yl)-hexanoic acid]^1[(R)-methyl-Sar]^3 cyclosporin A]
23 nM |  |  | CC[C@H]1NC(=O)[C@@H]([C@H](O)[C@H](C)CCN(C)Cc2cnn(C)c2)N(C)C(=O)[C@@H](C(C)C)N(C)C(=O)[C@@H](CC(C)C)N(C)C(=O)[C@@H](CC(C)C)N(C)C(=O)[C@H](C)NC(=O)[C@@H](C)NC(=O)[C@@H](CC(C)C)N(C)C(=O)[C@@H](C(C)C)NC(=O)[C@H](CC(C)C)N(C)C(=O)[C@@H](C)N(C)C1=O [Compound DM, [(3R,4R,5S)-4-Hydroxy-3-methyl-5-(methylamino)-1-({1-methyl-1H-pyrazol-4-ylmethyl}-methylamino)-hexanoic acid]^1[(R)-methyl-Sar]^3 cyclosporin A]

SMILES | Ki [1] | solubility at 18 h [2, 3] | solubility at 18 h ([2]; 25 °C, pH 7.8, aqueous buffer)
CC[C@H]1NC(=O)[C@@H]([C@H](O)[C@H](C)CCCCN2CCOCC2)N(C)C(=O)[C@@H](C(C)C)N(C)C(=O)[C@@H](CC(C)C)N(C)C(=O)[C@@H](CC(C)C)N(C)C(=O)[C@H](C)NC(=O)[C@@H](C)NC(=O)[C@@H](CC(C)C)N(C)C(=O)[C@@H](C(C)C)NC(=O)[C@H](CC(C)C)N(C)C(=O)[C@@H](C)N(C)C1=O [Compound KG, [(5R,6R,7S)-6-hydroxy-5-methyl-7-(methylamino)-1-(N-morpholino)-octanoic acid]^1[(R)-methyl-Sar]^3 cyclosporin A] | 3.8 nM |  | 
CC[C@H]1NC(=O)[C@@H]([C@H](O)[C@H](C)CCCCN(C)C)N(C)C(=O)[C@@H](C(C)C)N(C)C(=O)[C@@H](CC(C)C)N(C)C(=O)[C@@H](CC(C)C)N(C)C(=O)[C@H](C)NC(=O)[C@@H](C)NC(=O)[C@@H](CC(C)C)N(C)C(=O)[C@@H](C(C)C)NC(=O)[C@H](CC(C)C)N(C)C(=O)[C@@H](C)N(C)C1=O [Compound KF, [(5R,6R,7S)-1-(dimethylamino)-6-hydroxy-5-methyl-7-(methylamino)-octanoic acid]^1[(R)-methyl-Sar]^3 cyclosporin A] | 7.8 nM |  | 
